# Where a SMILES comes first, the peptide text is derived from it. Bridges are numbered along the chain shown (N, C = ends).
# Experiments:
# [1] = In vitro conversion in rat plasma; type: in vitro ADME; settings: preliminary
# [2] = Preliminary PK study in rat; type: in vivo; settings: slow bolus IV injection of 49 mg/kg of NX210
# Experimental: Therefore, NX210 PK in animals is followed by the measurement of its cyclic form NX218. First a preliminary PK study in rat was performed in order to validate the method for detecting NX218 in plasma then translated to monkey by performing a more robust PK study with repeated experiments. All PK studies were performed with NaCl 0.9% as vehicle.
SMILES,conversion by oxidation in rat plasma [1],plasma concentration of NX218 over time [2]
"N=C(N)NCCC[C@H](NC(=O)[C@H](CO)NC(=O)[C@H](CS)NC(=O)[C@H](CO)NC(=O)[C@H](CO)NC(=O)[C@H](Cc1c[nH]c2ccccc12)NC(=O)CNC(=O)[C@H](CO)NC(=O)[C@@H](N)Cc1c[nH]c2ccccc12)C(=O)N[C@@H](CO)C(=O)N[C@@H](CS)C(=O)NCC(=O)O [NX210, W-S-G-W-S-S-C-S-R-S-C-G] (H-WSGWSSCSRSCG-OH)",rapidly converted into NX218,
N=C(N)NCCC[C@@H]1NC(=O)[C@H](CO)NC(=O)[C@@H](NC(=O)[C@H](CO)NC(=O)[C@H](CO)NC(=O)[C@H](Cc2c[nH]c3ccccc23)NC(=O)CNC(=O)[C@H](CO)NC(=O)[C@@H](N)Cc2c[nH]c3ccccc23)CSSC[C@@H](C(=O)NCC(=O)O)NC(=O)[C@H](CO)NC1=O [NX218] (H-WSGWSSCSRSCG-OH; disulfide 7-11),,impossible to quantify from 3 hours
